“Also recorded” adds a separate entry of the source.
What was measured:
[1] = test system: DH10B cells co-expressing MaFRSA; test: In vivo incorporation at position 200 of sfGFP, MaFRSA (intact mass, GluC LC-MS/MS); type: cell-based, E. coli
MaPylRS = test: RNAse A/LC-HRMS assay of Ma-tRNA^Pyl acylation by MaPylRS; type: biochemical, Methanomethylophilus alvus; details: some statements also rest on intact tRNA analysis
MaFRSA (N166A, V168A) [2] = test: RNAse A/LC-HRMS assay of Ma-tRNA^Pyl acylation by MaFRSA; type: biochemical, Methanomethylophilus alvus; details: RNAse A/LC-HRMS and intact tRNA analysis
MaFRS2 (N166A, V168K) [3] = test: RNAse A/LC-HRMS assay of Ma-tRNA^Pyl acylation by MaFRS2; type: biochemical, Methanomethylophilus alvus; details: some statements also rest on intact tRNA analysis
MaFRS1 (N166A, V168L) [4] = test: RNAse A/LC-HRMS assay of Ma-tRNA^Pyl acylation by MaFRS1; type: biochemical, Methanomethylophilus alvus; details: some statements also rest on intact tRNA analysis
MaFRSA (N166A, V168A) [5] = test: Intact tRNA mass spectrometry: acylation of Ma-tRNA^Pyl by MaFRSA; type: biochemical, Methanomethylophilus alvus; details: for Yield of diacylated Ma-tRNA^Pyl / Yield of monoacylated Ma-tRNA^Pyl: MaFRSA 2.5 μM, Ma-tRNA^Pyl 25 μM, 37° C., 2 h, average of 3 technical replicates
MaFRS1 (N166A, V168L) [6] = test: Intact tRNA mass spectrometry: acylation of Ma-tRNA^Pyl by MaFRS1; type: biochemical, Methanomethylophilus alvus; details: MaFRS1 2.5 μM, Ma-tRNA^Pyl 25 μM, 37° C., 2 h; average of 3 technical replicates
MaFRS2 (N166A, V168K) [7] = test: Intact tRNA mass spectrometry: acylation of Ma-tRNA^Pyl by MaFRS2; type: biochemical, Methanomethylophilus alvus; details: MaFRS2 2.5 μM, Ma-tRNA^Pyl 25 μM, 37° C., 2 h; average of 3 technical replicates
MaFRSA = test: Malachite green assay to monitor adenylation by MaFRSA; type: biochemical, Methanomethylophilus alvus
Experimental: Malachite green assay to monitor adenylation. Enzymatic adenylation reactions were monitored using malachite green using a previous protocol with modifications^52. Each adenylation reaction (60 μL) contained the following components: 200 mM HEPES-K (pH 7.5), 4 mM DTT, 10 mM MgCl2, 0.2 mM ATP, 0-10 mM substrate, 4 U/mL E. coli inorganic pyrophosphatase (NEB), and 2.5 μM enzyme (MaFRS1 or MaFRSA). Adenylation reactions were incubated at 37° C. in a dry-air incubator. Aliquots (10 μL) were withdrawn after 0, 5, 10, 20, and 30 min and quenched upon addition to an equal volume of 20 mM EDTA (pH 8.0) on ice. Once all aliquots were withdrawn, 80 μL of Malachite Green Solution (Echelon Biosciences) was added to each aliquot and the mixture incubated at RT for 30 min. After shaking for 30 sec to remove bubbles, the absorbance at 620 nm was measured on a Synergy HTX plate reader (BioTek). The absorbance was then converted to phosphate concentration using a phosphate standard curve (0-100 μM) and plotted over time to determine turnover numbers.

[8] = samples vi-vii, DH10B, defined media lacking glutamate, 1 mM substrate

Row | SMILES | Substrate activity for MaFRSA (in words) (MaFRSA (N166A, V168A) [2]) | Substrate activity for MaFRS2 (in words) (MaFRS2 (N166A, V168K) [3]) | Substrate activity for MaFRS1 (in words) (MaFRS1 (N166A, V168L) [4]) | Yield of diacylated Ma-tRNA^Pyl (MaFRSA (N166A, V168A) [5]) [%] | Yield of monoacylated Ma-tRNA^Pyl (MaFRSA (N166A, V168A) [5]) [%] | Yield of diacylated Ma-tRNA^Pyl (MaFRS1 (N166A, V168L) [6]) [%] | Yield of monoacylated Ma-tRNA^Pyl (MaFRS1 (N166A, V168L) [6]) [%] | Yield of diacylated Ma-tRNA^Pyl (MaFRS2 (N166A, V168K) [7]) [%] | Yield of monoacylated Ma-tRNA^Pyl (MaFRS2 (N166A, V168K) [7]) [%] | also measured
1 | N[C@@H](Cc1cccc(C(F)(F)F)c1)C(=O)O [Sample 20] |  |  |  |  |  |  |  |  |  | sfGFP containing variant 20 at position 200 [1, 8]: 97.14%
2 | CC(C)(C)OC(=O)NCCCC[C@@H](N)C(=O)O [Substrate 5, N^ε-(tert-butoxycarbonyl)-D-lysine] |  |  |  |  |  |  |  |  |  | Substrate activity for MaPylRS (in words) (MaPylRS): No reactivity was detected
3 | N[C@@H](Cc1ccccc1)C(=O)O [Substrate 7, L-phenylalanine, reference compound] | low activity |  |  |  |  |  |  |  |  | 
4 | N[C@H](Cc1ccccc1)C(=O)O [Substrate 11, D-phenylalanine] |  | no reactivity was detected | no reactivity was detected |  |  |  |  |  |  | 
5 | CC(C)(C)OC(=O)NCCCCC(C(=O)O)C(=O)O [Substrate 16] |  |  |  |  |  |  |  |  |  | Substrate activity for MaPylRS (in words) (MaPylRS): accepts; also recorded: measurable substrate
6 | Cc1cccc(CC(C(=O)O)C(=O)O)c1 [Substrate 17] | high activity | accept; also recorded: excellent substrates | accept; also recorded: excellent substrates | 1.54 | 9.48 | 3.64 | 49.8 | 0 | 52.0 | 
7 | O=C(O)C(Cc1cccc(C(F)(F)F)c1)C(=O)O [Substrate 18] | highest activity | accept; also recorded: excellent substrates | accept; also recorded: excellent substrates | 0 | 31.4 | 9.24 | 59.3 | 0 | 26.1 | Rate of adenylation as % of the rate observed for meta-CF3-L-Phe (MaFRSA): 36%; Acylation product in competition of L-Phe 7 and 18 (MaFRSA (N166A, V168A) [5]; MaFRSA incubated with equal concentration (10 mM) of L-Phe 7 and meta-CF3-2-BMA 18): Only the acylation product of 18 and Ma-tRNA^Pyl is observed; also recorded: only the malonyl product (18-tRNA^Pyl) is observed
8 | O=C(O)C(Cc1cccc(Br)c1)C(=O)O [Substrate 19] | high activity | accept; also recorded: excellent substrates | accept; also recorded: excellent substrates | 0 | 22.3 | 10.8 | 37.4 | 0 | 32.7 | 
9 | N[C@@H](Cc1cccc(C(F)(F)F)c1)C(=O)O [Substrate 20] |  |  |  |  |  |  |  |  |  | Intact mass of expressed sfGFP variant (in words) ([1]; E. coli DH10B, 1 mM monomer, sfGFP-200TAG): mass corresponded to the presence of a single trifluoromethyl phenylalanine side chain; sfGFP containing variant 1 at position 200 [1, 8]: 0.00%; sfGFP containing variant 2 at position 200 [1, 8]: 0.00%; sfGFP containing variant 21 at position 200 [1, 8]: 0.63%; sfGFP containing variant A at position 200 [1, 8]: 0.14%; sfGFP containing variant F at position 200 [1, 8]: 0.15%; sfGFP containing variant K at position 200 [1, 8]: 0.14%; sfGFP containing variant Q at position 200 [1, 8]: 0.62%; sfGFP containing variant W at position 200 [1, 8]: 1.02%; sfGFP containing variant Y at position 200 [1, 8]: 0.15%
